Assays:
[1] = tested on: lysosomal pH in human monocyte-derive macrophages (MDMs); test: Lysosensor Yellow/Blue dextran analysis of lysosomal pH in MDMs; assay type: cell-based; conditions: 1 hour, read-out: EC50 for lysosome neutralization
Experimental: To measure the lysosomal pH in human monocyte-derive macrophages (MDMs), MDMs adhered to 24-well plates were exposed to 500 μg/mL Lysosensor Yellow/Blue dextran, 10,000 MW (ThermoFisher, L22460) in R10 for 24 hours. MDMs were then exposed to plecomacrolides for 1 hour and harvested with 0.05% Trypsin-EDTA (Gibco 25300054). Cells were washed twice in FACS buffer, and analyzed on a MoFlo Astrios flow cytometer, with blue signal excited from a 354 nm laser and yellow signal excited from a 405 nm laser. A standard curve was generated by resuspending MDMs in equilibration buffers of known pH as previously described. The ratio of blue:yellow fluorescence intensity was calculated for each cell, the median blue:yellow ratio for the cell population for each condition was obtained, and the lysosomal pH in MDMs was calculated for each condition using the standard curve.
Lysosensor Yellow/Blue Dextran Analysis of Lysosomal pH. To measure the lysosomal pH in human MDMs, MDMs adhered to 24-well plates were exposed to 500 μg/mL Lysosensor Yellow/Blue dextran, 10,000 molecular weight (MVV) in R10 for 24 h. MDMs were then exposed to plecomacrolides for 1 h and harvested with 0.05% Trypsin-(ethylenedinitrilo)tetraacetic acid (EDTA). Cells were washed twice in FACS buffer, and analyzed on a flow cytometer, with blue signal excited from a 354-nm laser and yellow signal excited from a 405-nm laser. A standard curve was generated by resuspending MDMs in equilibration buffers of known pH. The ratio of blue:yellow fluorescence intensity was calculated for each cell, the median blue:yellow ratio for the cell population for each condition was obtained, and the lysosomal pH in MDMs was calculated for each condition using the standard curve.

[2] = tested on: ARF-1:AP-1:Nef:MHC-I complex; test: Differential scanning fluorimetry (DSF) thermal stability assay; assay type: binding; conditions: 1-hour incubation, compared to solvent control
Source text: (§1) The His6- and GST-tagged AP-1 core, mouse AP1M1 (157-423) (referred as μ1-CTD), human Arf1 (17-181)-Q71L, human MHC-I (338-365)-NL4-3 Nef, HIV-1 NL4-3 Nef constructs and protein purification were previously described. For GST pull down assay, codon-optimized human MHC-I (338-365) was subcloned into pGST parallel2 vector using BamHI/Xhol sites, fused an N-terminal GST tag and a TEV cleavage site. PCR encoding HIV-1 Nef or SlVsmm Nef fused with GFP was subcloned into LIC 2BT vector (Macrolab), expressed as a TEV-cleavable N-terminal His6 tag and C-terminal uncleavable GFP tag.
Recombinant AP-1 core was mixed with Arf1-GTP and MHC-I-Nef at the molar ratio of 1:4:6, then incubated at 4° C. overnight. […]
DSF assays were performed using a Stratagene Mx3000P RT-PCR (Stratagene, La Jolla, CA) to monitor protein unfolding by the florescence increasing of SYPRO Orang (Invitrogen, Carlsbad, Calif.). […] The Fluorescent intensity was measured using the SYBR green filter over the temperature range of 25 to 90° C. in 1 degree/min increments. After subtracting fluorescence from DMSO control reaction without protein, the average fluorescent intensities were plotted as a function of temperature. […] The fluorescence intensity (before post-peak region) was fitted to Boltzmann equation to obtain melting temperature (Tm).

AP-1:Nef:MHC-I complex = test: GST-tagged MHC-I cytoplasmic tail pull down assay; assay type: binding
Source text: as §1
GST tagged MHC-I tail was expressed in BL21 (DE3) star cells by induction at 20° C. overnight. The purification was carried out using glutathione-Sepharose 4B resin, the elution was then subjected to a HiLoad 16/60 Superdex 75 column in the buffer of 20 mM Tris pH 8, 150 mM NaCl, 0.1 mM TCEP.

[3] = tested on: Nef alleles from HIV clades A, B, C, D, F, and F/B and SIV; test: Nef alleles of diverse HIV clades and SIV (MSCV-IRES-GFP) in CEM cells expressing MHC-I alleles; assay type: cell-based
Experimental: (ii) MSCV: Murine stem cell virus internal ribosome entry site GFP (pMIG) constructs containing various nef alleles were generated as previously described. Retroviral supernatants were prepared using BOSC cells transfected with the pMIG constructs, the retrovirus packaging vector pCL-Eco (65) and pHCMV-G using PEI as described above for HIV. Viral supernatants were collected 48 h post-transfection, clarified by centrifugation, stored at −80° C., and transductions were performed as described for HIV constructs.

[4] = Mouse in vivo tolerability; parameters: species or system mice
Experimental: FIG. 8A is a schematic representation of experiments for FIG. 8B-D. Five mice per group received injections of CMA every 2 days for 10 doses. Blood plasma and lymph nodes were harvested from mice sacrificed 2 hours after the final injection.
(§2) Mouse in vivo Assays. To further examine the tolerability of CMA, preliminary studies were performed in two groups of mice injected with different doses of CMA every other day for 18 days (FIG. 8A). […] In a separate experiment, plasma harvested from treated mice inhibited Nef in our in vitro assay (FIG. 8F). Taken together, these promising preliminary studies provide evidence that CMA is both efficacious and tolerable in vivo.

HIV Nef = test: Nef activity in HIV-infected CD4+ T cells treated with plasma from CMA-injected mice; assay type: cell-based; conditions: plasma 30 minutes after injection, diluted 1:20
Experimental: FIG. 8F is a summary graph of flow cytometric data from experiments as in FIG. 1. Blood plasma was isolated from mice 30 minutes after injection with CMA, and CMA concentration was determined by mass spectrometry. Primary CD4+ T cells infected with HIV as in FIG. 1 were treated with 5% plasma from control mice spiked with known concentrations of CMA (standard curve) or with plasma from the CMA-injected mice diluted 1:20. Nef activity in cells receiving plasma from treated mice was compared to the standard curve based on the concentration of CMA as determined by mass spectrometry.
as §2

For `C/C=C/[C@H]1O[C@@](O)([C@@H](C)[C@H](O)[C@H](C)[C@H]2OC(=O)/C(OC)=C/C(C)=C/[C@@H](C)[C@@H](O)[C@@H](CC)[C@@H](O)[C@H](C)C/C(C)=C/C=C/[C@@H]2OC)C[C@@H](O[C@H]2C[C@@H](O)[C@H](OC(N)=O)[C@@H](C)O2)[C@@H]1C` [CMA, concanamycin A], the EC50 [1] was 12.7 nM, the “change in Tm of complex components” value [2] was “No significant changes in Tm” and the “pulldown of NL4-3 Nef, SIV Nef or AP-1 μ1-CTD by GST-tagged MHC-I cytoplasmic tail” value (AP-1:Nef:MHC-I complex) was “did not alter pulldown”. The “surface expression of HA-tagged HLA-A*02, HLA-B*08, HLA-B*27, HLA-B*57” value ([3]; CEM cells, each Nef allele) was “restored MHC-I surface expression in every context”, the “HLA-A2 expression in cells expressing diverse nef alleles” value ([3]; CEM-A2 cells) was “restored expression of HLA-A2 in cells expressing each nef allele” and the “toxicity based on behavior, fur and weight loss” value ([4]; two doses, injected every other day for 18 days) was “Neither dose showed toxicity”. The body mass ([4]; weighed prior to each dose) was “no loss in body mass and no dose effect” and the “Nef inhibition by plasma harvested from treated mice” value (HIV Nef) was “inhibited Nef”.

Source: US12594258B2, “Inhibitors of MHC-I Nef downmodulation for treating HIV” (priority 2019, dated 2026)
